Assay results reported in US11827690B2, “ApoC-II mimetic peptides” (THE UNITED STATES OF AMERICA, as represented by the …, priority 2017, dated 2023).
Values belong to the sequence of their own block, whether it stands above or below them.

Experiments:
[1] = target: T1, LPL (Bos taurus, UniProt P11151); assay: addition of exogenous LPL to serum samples collected after IP injection with Intralipid; assay type: biochemical
T1 sequence (P11151 29-478): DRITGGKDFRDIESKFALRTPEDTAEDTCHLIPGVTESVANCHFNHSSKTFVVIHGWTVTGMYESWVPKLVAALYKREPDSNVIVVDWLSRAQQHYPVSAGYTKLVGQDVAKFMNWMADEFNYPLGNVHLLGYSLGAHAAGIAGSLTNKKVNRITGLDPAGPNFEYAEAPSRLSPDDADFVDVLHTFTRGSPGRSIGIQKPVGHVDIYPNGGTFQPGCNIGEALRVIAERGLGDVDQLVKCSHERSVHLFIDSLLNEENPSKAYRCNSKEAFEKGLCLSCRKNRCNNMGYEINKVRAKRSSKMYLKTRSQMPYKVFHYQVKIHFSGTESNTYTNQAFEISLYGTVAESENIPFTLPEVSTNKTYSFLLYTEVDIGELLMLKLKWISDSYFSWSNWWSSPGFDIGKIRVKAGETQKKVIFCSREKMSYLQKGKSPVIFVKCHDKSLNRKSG

[2] = target: T2, LPL inhibited by apoC-III (Bos taurus, UniProt P11151); assay: LPL activation assay with Intralipid as substrate and recombinant apoC-III as an inhibitor; assay type: biochemical; conditions: Intralipid substrate, FIG. 31
T2 sequence (P11151 29-478): T1 sequence (P11151 29-478)
Description: LPL activity assay: 10 μL of Intralipid, human plasma sample, or mouse plasma sample was added in each well using repeater pipette. 10 μL (or 15 μL in the wells with no LPL control) of PBS and 10 μL of 1% BSA was added in each well using repeater pipette. 10 μL of peptides were added to corresponding wells in vertical triplicates (lowest concentration is on a left, highest is on the right). The plate was spun down at 1000 RPM for 10 seconds to mix and to remove the solutions from the wall of each well. The plate was put on ice and 5 μL of LPL was added using repeater pipette. The plate was spun down again at 1000 RPM for 10 seconds. The plate was covered and put back on ice for an incubation of 30 min. The plate was then moved to 37° C. and incubated for 1 hour.
Free fatty acids (NEFA) assay: 45 μL of 5 nmoL standard and 0 nmoL control (0.2% BSA) were added to corresponding wells. 225 μL of reagent A was added in each well using the reagent tray and 12-channel pipette. The plate was incubated for 10 min before 75 μL of reagent B was added to each well using the reagent tray and 12-channel pipette. The plate was not covered due to the high volume. The absorbance at 550 nm and 660 nm was measured.
LPL assay was performed using Intralipid, high TG human plasma (1:50 dilution), or apoC-III transgenic mouse plasma (1:50 dilution). When Intralipid was used as a substrate, 25 or 50 μM recombinant ApoC-III was added as an inhibitor. When the high TG human plasma was used as a substrate, 25 or 50 μM recombinant ApoC-III was added as an inhibitor with or without pre-incubation at 37° C. for 1 hour. An apoC-II mimetic peptide was added at various concentrations.

[3] = tested on: apoC-III transgenic mice; assay: serum TG of apoC-III transgenic mice after Intralipid injection; assay type: in vivo; conditions: peptide IP 1 hour after Intralipid, 5 and 10 μmole/kg, FIG. 39
Description: C57Bl/6 mice (wild-type), apoC-II knockout (apoC-II KO) mice, and apoC-III transgenic mice were used for in vivo study. The C57Bl/6 mice (wild-type) were purchased from Taconic Biosciences Inc. The apoC-II KO mice were created as described in Sakurai et al., J Pharmacol Exp Ther 356:341-353, 2016. The apoC-III transgenic mice were generated by overexpressing human apoC-III in C57Bl/6 mice. See Qu et al., J. Lipid Res. 48:1476-1487, 2007.
Mice were fasted overnight (approximately 12 hours) before the study and 6 hours during the study, the next day. The apoC-II mimetic peptides were synthetically produced and free of biological contamination (not available as FDA approved compounds/treatment). Peptides were produced and used in sterile conditions and filtered by 0.2 nm filter before injections in a single dose 1-10 μmol/kg body weight (B. W.) administered either subcutaneous injection (S.Q. or S.C.), intraperitoneal injection (I.P.) or intravenous injection (I.V.) (in a sterile, pharmaceutical grade PBS solution at a volume ≤200 μL) as described in Sakurai et al., J Pharmacol Exp Ther 356:341-353, 2016. […]

[4] = target: T3, bovine LPL (Bos taurus, UniProt P11151); assay: in vitro LPL assay using hypertriglyceridemia patient sera as substrate; assay type: biochemical; conditions: patient sera TG about 1000 mg/dL to about 1700 mg/dL, FIGS. 15A-D
T3 sequence (P11151 29-478): T1 sequence (P11151 29-478)
Method in brief: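 Bovine LPL (diluted stock) added to Intralipid or human or mouse plasma with BSA and peptides in triplicate, held 30 min on ice, then incubated 1 hour at 37° C. Released free fatty acids measured by colorimetric NEFA assay at 550/660 nm against an oleic acid standard.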

[5] = tested on: obese monkeys with a plasma TG level of greater than 2 mmol/L; assay: in vivo studies in the obese monkey model
Description: Monkeys with a TG level greater than 2 mmol/L were selected, trained and assigned into 3 groups (control, 1 mg/kg Delta6PV, and 5 mg/kg Delta6PV). The desired dose was injected intravenously into the animals at 0 h time point. The monkeys were monitored over the course of 72 hours and blood samples at different time points were collected for biomarker analysis.

Sequence: DWLKAFYDKVAEKLKEAFPAMSTYTGIFTDQVLSVLKGEE (listed as Homo sapiens) [apoC-II-a, excluded from the claimed peptides]
lipoprotein particles from treated mice as substrates for LPL [1]: better substrates for LPL
effect on inhibition of LPL by apoC-III [2]: overcame the inhibitory effect of apoC-III and facilitated lipolysis in a dose-dependent manner
effect on inhibition of LPL by apoC-III ([2]; listed as ApoC-II-a): overcomes the inhibition by apoC-III

LPL activation [4]: activated LPL in vitro
Sequence: DYLKEVFEKLRDLYEKFTPAVSTYTGIFTDQVLSVLKGEE [Delta6PV]
serum TG increase after Intralipid injection [3]: the TG increase was significantly reduced
dose dependence of effect ([5]; 1 and 5 mg/kg intravenous): dose-dependent
VLDL level ([5]; FIG. 48A): marked reduction of the VLDL level
LDL level ([5]; FIG. 48B): did not change significantly
HDL level ([5]; FIG. 48C): did not change significantly
plasma TG level ([5]; single intravenous injection, 1 and 5 mg/kg, 24 h, 48 h, and 72 h after the injection): significant reduction of plasma TG level
